Measurements published in patent US6423689B1, “Peptidyl calcium channel blockers” (Warner-Lambert Company, priority 1997, dated 2002).

Molecular target: T1, N-type Ca2+ channels in IMR-32 cells (Homo sapiens, UniProt Q00975)
T1 construct: host or cells: IMR-32 cells, differentiated with dibutyryl cAMP and bromodeoxyuridine
Assay: Inhibition of N-type calcium flux in IMR-32 cells (Indo-1 fluorescence, nitrendipine present)
Assay type: cell-based
Method: Measurement of N-type Ca^2+ Channel Blocking Potencies of Compounds in IMR-32 Cells Using the Fluorescent Ca^2+ Indicator Indo-1
IMR-32 cells are a human tumoral cell line of neural origin. […] Calcium flux into these cells may be induced by stimulation with elevated potassium concentrations. The L-channel component of calcium flux may be blocked by adding 5 μM nitrendipine. The remaining component of calcium entry into the IMR-32 cells is due to calcium flux through N-type calcium channels. Intracellular calcium concentrations are measured using the fluorescent calcium indicator Indo 1. The effect of drug concentration on calcium uptake is studied.
The IMR-32 cell line was obtained from the American Type Culture Collection (Rockville, Md.). Cells were grown in Eagle's Minimum Essential Medium with Eagle's salts supplemented with 10% fetal bovine serum, 2 mM L-Gln and antibiotic/antimycotic mixture (Gibco). […] After 7 to 13 days of differentiation, cells were detached using 0.5 mM EDTA and loaded with 5 μM Indo-1 acetoxymethyl ester (Molecular Probes, Eugene, OR) at […] for 45 minutes. Loaded cells were washed twice, resuspended (˜10^7 cells/mL) in assay buffer (10 mM HEPES/Tris pH 7.4 in Hank's Balanced Salt Solution without bicarbonate or phenol red containing 0.5% bovine serum albumin) and kept on ice until use. Fluorescence measurements were carried out in a Photon Technology International (PTI, South Brunswick, N.J.) Model RF-F3004 spectrofluorometer with dual emission monochromators using excitation at 350 nm and emission at 400 and 490 nm. The instrument was equipped with a thermostated cuvette holder with stirring capabilities as well as with a computer-controlled pump which allowed for reagent addition during measurement. Instrument control and data collection was done by PTI's OSCAR software running on an IBM compatible computer. […] Samples were incubated for 10 minutes at 30° C. and then aliquoted into three 10×10 mm disposable acrylic cuvettes. Emission signals at 400 and 490 nm were acquired from each cuvette at 30° C. for 50 seconds. At 20 seconds after the start of reading, cells were depolarized by the addition of 160 μL of stimulation solution (1M KCl, 68 mM CaCl2) to the cuvette via the computer-controlled pump. Ratio of dual emission signals (400 nm/490 nm), which is proportional to intracellular Ca^2+ concentration, was plotted against time, and the difference between maximal response after stimulation and basal value (before stimulation) was determined. Values obtained in this way were plotted as a function of drug concentration. IC50 values of test compounds were calculated by fitting a four-parameter logistic function to the data using the least squares method.

T1 sequence (Q00975 whole entry): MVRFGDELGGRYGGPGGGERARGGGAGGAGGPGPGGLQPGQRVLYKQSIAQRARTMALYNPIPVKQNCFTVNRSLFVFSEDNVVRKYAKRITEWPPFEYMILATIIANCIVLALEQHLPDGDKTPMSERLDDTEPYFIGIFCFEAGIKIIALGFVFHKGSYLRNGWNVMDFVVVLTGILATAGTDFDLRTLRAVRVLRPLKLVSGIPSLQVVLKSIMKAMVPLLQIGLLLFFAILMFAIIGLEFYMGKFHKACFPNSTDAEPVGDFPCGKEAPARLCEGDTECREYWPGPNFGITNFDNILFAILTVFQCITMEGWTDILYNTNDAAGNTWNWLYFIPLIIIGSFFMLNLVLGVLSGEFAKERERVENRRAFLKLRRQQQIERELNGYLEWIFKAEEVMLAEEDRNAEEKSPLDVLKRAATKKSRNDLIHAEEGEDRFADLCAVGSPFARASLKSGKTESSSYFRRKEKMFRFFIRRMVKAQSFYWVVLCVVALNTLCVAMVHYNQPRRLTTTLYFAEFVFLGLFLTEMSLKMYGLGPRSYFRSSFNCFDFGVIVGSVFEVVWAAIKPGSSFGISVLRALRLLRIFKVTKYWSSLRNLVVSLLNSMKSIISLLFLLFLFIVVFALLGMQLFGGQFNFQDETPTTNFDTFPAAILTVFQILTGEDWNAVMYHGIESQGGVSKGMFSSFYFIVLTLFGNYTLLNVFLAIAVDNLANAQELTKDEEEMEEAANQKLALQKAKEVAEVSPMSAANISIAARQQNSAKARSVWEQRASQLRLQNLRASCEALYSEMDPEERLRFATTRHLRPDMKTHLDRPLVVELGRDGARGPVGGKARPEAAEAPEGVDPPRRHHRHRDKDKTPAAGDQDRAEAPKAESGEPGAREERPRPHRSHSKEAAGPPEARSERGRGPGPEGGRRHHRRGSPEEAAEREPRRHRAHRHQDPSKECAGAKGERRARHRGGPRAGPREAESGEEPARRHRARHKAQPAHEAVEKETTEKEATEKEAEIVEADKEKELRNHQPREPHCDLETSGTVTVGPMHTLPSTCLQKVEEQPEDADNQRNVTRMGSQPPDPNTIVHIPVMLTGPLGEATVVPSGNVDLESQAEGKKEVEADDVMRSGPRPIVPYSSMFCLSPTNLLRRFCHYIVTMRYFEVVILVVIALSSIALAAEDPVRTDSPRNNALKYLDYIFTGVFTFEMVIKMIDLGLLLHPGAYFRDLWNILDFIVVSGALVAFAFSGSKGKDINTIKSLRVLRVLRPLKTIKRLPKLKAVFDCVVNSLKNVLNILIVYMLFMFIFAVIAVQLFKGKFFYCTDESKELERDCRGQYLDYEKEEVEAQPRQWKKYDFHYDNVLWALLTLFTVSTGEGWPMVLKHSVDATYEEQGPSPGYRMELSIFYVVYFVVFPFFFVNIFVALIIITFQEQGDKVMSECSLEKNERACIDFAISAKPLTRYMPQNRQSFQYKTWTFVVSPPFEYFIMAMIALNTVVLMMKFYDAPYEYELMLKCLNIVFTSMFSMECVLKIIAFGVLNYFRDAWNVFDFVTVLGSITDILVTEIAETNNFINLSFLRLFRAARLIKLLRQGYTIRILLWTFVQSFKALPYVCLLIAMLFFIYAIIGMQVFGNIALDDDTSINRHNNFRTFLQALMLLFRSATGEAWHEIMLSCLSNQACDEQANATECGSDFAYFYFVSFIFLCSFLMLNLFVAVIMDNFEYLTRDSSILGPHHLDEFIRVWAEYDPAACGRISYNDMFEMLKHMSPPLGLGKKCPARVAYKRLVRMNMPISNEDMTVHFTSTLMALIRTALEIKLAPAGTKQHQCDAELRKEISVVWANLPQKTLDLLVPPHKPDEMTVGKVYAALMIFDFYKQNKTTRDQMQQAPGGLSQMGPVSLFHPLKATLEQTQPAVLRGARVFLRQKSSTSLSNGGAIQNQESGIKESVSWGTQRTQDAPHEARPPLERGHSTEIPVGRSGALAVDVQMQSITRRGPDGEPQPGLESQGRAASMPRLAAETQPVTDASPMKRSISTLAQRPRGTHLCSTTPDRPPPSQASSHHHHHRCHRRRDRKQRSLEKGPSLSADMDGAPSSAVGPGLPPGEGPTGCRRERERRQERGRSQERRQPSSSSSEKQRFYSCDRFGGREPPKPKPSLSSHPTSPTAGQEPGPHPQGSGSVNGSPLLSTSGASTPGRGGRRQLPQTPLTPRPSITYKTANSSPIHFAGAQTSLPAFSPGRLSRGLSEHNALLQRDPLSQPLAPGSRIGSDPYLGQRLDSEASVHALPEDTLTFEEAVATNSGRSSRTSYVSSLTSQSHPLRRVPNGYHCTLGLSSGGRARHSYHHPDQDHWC
T1 sequence (P54289 25-956 partner limits assumed): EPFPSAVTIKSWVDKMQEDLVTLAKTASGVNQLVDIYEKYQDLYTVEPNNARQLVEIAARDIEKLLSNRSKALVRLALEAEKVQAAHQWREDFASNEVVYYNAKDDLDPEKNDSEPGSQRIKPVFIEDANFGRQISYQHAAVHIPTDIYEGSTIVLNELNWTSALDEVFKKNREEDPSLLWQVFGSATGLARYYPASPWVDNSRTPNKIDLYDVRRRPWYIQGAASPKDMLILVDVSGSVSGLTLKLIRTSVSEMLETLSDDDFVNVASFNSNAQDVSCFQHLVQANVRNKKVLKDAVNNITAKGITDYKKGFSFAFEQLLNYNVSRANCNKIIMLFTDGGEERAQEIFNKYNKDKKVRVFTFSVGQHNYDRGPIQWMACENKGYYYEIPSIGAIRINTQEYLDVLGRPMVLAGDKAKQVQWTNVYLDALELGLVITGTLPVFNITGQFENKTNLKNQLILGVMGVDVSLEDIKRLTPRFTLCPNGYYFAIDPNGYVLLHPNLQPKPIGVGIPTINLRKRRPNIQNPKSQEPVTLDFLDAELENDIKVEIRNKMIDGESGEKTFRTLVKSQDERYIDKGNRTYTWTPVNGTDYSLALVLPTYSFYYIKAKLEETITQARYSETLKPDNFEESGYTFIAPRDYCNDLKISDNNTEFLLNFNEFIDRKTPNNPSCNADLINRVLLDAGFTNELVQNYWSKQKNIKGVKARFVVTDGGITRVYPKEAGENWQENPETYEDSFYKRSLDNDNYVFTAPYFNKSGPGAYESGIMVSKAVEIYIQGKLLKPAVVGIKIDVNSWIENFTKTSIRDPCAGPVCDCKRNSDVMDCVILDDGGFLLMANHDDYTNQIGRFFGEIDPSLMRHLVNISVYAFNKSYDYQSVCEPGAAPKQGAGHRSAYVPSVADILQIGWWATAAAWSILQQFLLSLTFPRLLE
T1 sequence (P54289 957-1103 partner limits assumed): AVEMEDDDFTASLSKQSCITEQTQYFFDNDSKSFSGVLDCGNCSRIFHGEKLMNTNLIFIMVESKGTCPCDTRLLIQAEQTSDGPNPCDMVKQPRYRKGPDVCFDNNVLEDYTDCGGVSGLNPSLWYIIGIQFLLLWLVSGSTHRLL
T1 sequence (P54284 whole entry partner): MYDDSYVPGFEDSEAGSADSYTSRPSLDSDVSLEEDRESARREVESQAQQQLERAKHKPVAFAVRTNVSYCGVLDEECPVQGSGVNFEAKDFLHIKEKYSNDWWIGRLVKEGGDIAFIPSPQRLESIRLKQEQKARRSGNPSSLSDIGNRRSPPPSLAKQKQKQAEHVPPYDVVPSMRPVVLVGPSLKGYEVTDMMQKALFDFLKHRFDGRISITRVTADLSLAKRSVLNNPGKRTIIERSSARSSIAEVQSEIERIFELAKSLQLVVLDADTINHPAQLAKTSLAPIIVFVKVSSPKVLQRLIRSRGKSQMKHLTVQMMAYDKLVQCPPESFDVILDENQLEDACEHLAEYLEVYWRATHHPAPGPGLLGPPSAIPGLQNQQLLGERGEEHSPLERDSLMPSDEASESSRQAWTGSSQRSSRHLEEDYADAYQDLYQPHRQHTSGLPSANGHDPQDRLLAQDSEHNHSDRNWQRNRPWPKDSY

SMILES: COc1cc(NC(=O)[C@H](Cc2ccc(OCc3ccccc3)cc2)NC(=O)[C@H](CC(C)C)NC(=O)N2CCCCCC2)cc(OC)c1OC (relative stereo) [Example 223, [S-(R*,R*)]-Azepane-1-carboxylic acid {-1-[2-(4-benzyloxy-phenyl)-1-(3,4,5-trimethoxy-phenylcarbamoyl)-ethylcarbamoyl]-3-methyl-butyl}-amide]
- Inhibition of Calcium Flux in IMR-32 Cells % Inhibition at 1 μM: 36%
- Inhibition of Calcium Flux in IMR-32 Cells % Inhibition at 10 μM: 74%

SMILES: CC(C)C[C@H](NC(=O)N1CCCCCC1)C(=O)N[C@@H](Cc1ccc(OCc2ccccc2)cc1)C(=O)N1CCCNCC1 [Example 259, [S-(R*,R*)]-Azepane-1-carboxylic acid {1-[2-(4-benzyloxy-phenyl)-1-(1,4]diazepane-1-carbonyl)-ethylcarbamoyl]-3-methyl-butyl}-amide]
- IC50 (IMR-32 cells, 5 μM nitrendipine, K+ depolarization): 2400 nM

SMILES: CC(C)C[C@H](NC(=O)N1CCCCCC1)C(=O)N[C@@H](Cc1ccc(OCc2ccccc2)cc1)C(=O)NCCc1c[nH]c2ccccc12 (relative stereo) [Example 224, [S-(R*,R*)]-Azepane-1-carboxylic acid (1-{2-(4-benzyloxy-phenyl)-1-[2-(1H-indol-3-yl)-ethylcarbamoyl]-ethylcarbamoyl}-3-methyl-butyl)-amide]
- Inhibition of Calcium Flux in IMR-32 Cells % Inhibition at 1 μM: 50%
- Inhibition of Calcium Flux in IMR-32 Cells % Inhibition at 10 μM: 87%

SMILES: CC(C)C[C@H](NC(=O)N1CCOCC1)C(=O)N[C@@H](Cc1ccc(OCc2ccccc2)cc1)C(=O)OC(C)(C)C (relative stereo) [Example 34, [S-(R*,R*)]-3-(4-Benzyloxy-phenyl)-2(S)-{4-methyl-2(S)-[(morpholine-4-carbonyl)-amino]-pentanoylamino}-propionic acid tert-butyl ester]
- Inhibition of Calcium Flux in IMR-32 Cells % Inhibition at 1 μM: 29%
- Inhibition of Calcium Flux in IMR-32 Cells % Inhibition at 10 μM: 78%

SMILES: COc1ccccc1C(=O)N[C@@H](CC(C)C)C(=O)N[C@@H](Cc1ccc(OCc2ccccc2)cc1)C(=O)OC(C)(C)C (relative stereo) [Example 98, [S-(R*,R*)]-3-(4-Benzyloxy-phenyl)-2-[2-(2-methoxy-benzoylamino)-4-methyl-pentanoylamino]-propionic acid tert-butyl ester]
- Inhibition of Calcium Flux in IMR-32 Cells % Inhibition at 1 μM: 34%

SMILES: CC(C)C[C@H](NC(=O)Nc1ccc(Oc2ccccc2)cc1)C(=O)N[C@@H](Cc1ccc(OCc2ccccc2)cc1)C(=O)OC(C)(C)C (relative stereo) [Example 65, [S-(R*,R*)]-3-(4-Benzyloxy-phenyl)-2-{4-methyl-2-[3-(4-phenoxy-phenyl)-ureido]pentanoylamino}-propionic acid tert-butyl ester]
- Inhibition of Calcium Flux in IMR-32 Cells % Inhibition at 1 μM: 28%

SMILES: CC(C)C[C@H](NC(=O)N1CCCCCC1)C(=O)N[C@@H](Cc1ccc(N(Cc2ccccc2)Cc2ccccc2)cc1)C(=O)NC(C)(C)C (relative stereo) [Example 133, [S-(R*,R*)]-Azepane-1-carboxylic acid {1-[2-(4-dibenzylamino-phenyl)-1-tert-butylcarbamoyl-ethylcarbamoyl]-3-methyl-butyl}-amide]
- Inhibition of Calcium Flux in IMR-32 Cells % Inhibition at 1 μM: 54%
- Inhibition of Calcium Flux in IMR-32 Cells % Inhibition at 10 μM: 72%

SMILES: Cc1nn(-c2ccccc2)nc1C(=O)N[C@@H](CC(C)C)C(=O)N[C@@H](Cc1ccc(OCc2ccccc2)cc1)C(=O)OC(C)(C)C (relative stereo) [Example 121, [S-(R*,R*)]-3-(4-Benzyloxy-phenyl)-2-{4-methyl-2-[(5-methyl-2-phenyl-2H-[1,2,3]triazole-4-carbonyl)-amino]-pentanoylamino}-propionic acid tert-butyl ester]
- Inhibition of Calcium Flux in IMR-32 Cells % Inhibition at 10 μM: 25%

SMILES: CC(C)C[C@H](NC(=O)c1ccc2ccccc2c1)C(=O)N[C@@H](Cc1ccc(OCc2ccccc2)cc1)C(=O)OC(C)(C)C (relative stereo) [Example 99, [S-(R*,R*)]-3-(4-Benzyloxy-phenyl)-2-{4-methyl-2-[(naphthalene-2-carbonyl)-amino]pentanoylamino}-propionic acid tert-butyl ester]
- Inhibition of Calcium Flux in IMR-32 Cells % Inhibition at 1 μM: 19%
